Assay results reported in US20220380319A1 (Bial - R&D Investments, S.A., priority 2019, published 2022).
Values after ≈ are worked out from the molar mass of the structure shown.

Columns and labels:
[1] = Compound solubility in water
acid ceramidase = biological target: T1, acid ceramidase (Homo sapiens, UniProt Q13510); assay: Acid ceramidase inhibition, biochemical fluorescent assay with cell lysates overexpressing acid ceramidase, substrate Rbm14-12; settings: substrate Rbm14-12 6.3 μM
T1 construct: Cell lysates overexpressing acid ceramidase were used as the enzyme source; expressed in transfected cells
T1 sequence (Q13510 22-395): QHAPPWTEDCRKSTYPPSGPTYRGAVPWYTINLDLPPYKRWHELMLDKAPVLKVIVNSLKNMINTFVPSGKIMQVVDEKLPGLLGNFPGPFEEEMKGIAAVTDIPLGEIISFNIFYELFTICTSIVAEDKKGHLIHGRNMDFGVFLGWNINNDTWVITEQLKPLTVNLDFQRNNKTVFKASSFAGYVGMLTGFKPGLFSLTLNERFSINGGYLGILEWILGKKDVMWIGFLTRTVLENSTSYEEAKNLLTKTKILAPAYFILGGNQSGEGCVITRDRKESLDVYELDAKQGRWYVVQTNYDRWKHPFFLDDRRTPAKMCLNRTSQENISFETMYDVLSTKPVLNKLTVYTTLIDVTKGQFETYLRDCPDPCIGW
Method in brief: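 IC50 derived by four-parameter fitting of fluorescence (ex360 nm, em446 nm) produced after 1 hr in methanol/NaIO4/glycine stop buffer, pH 10.6. Reaction: 6.3 μM Rbm14-12, 1 hr RT, following 1 hr RT compound preincubation with 10 μg overexpressing-cell lysate protein in pH 4.5 NaAC/NaCl buffer.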

[2] = pH 4.5, 1 hr preincubation at RT

SMILES | solubility [1] | IC50 (acid ceramidase; [2]) | IC50 (acid ceramidase; pH 4.5)
O=C(NCCCc1ccccc1)n1cnc2c(N3CCC(F)(F)CC3)cccc21 [Example 248, 4-(4,4-Difluoropiperidin-1-yl)-N-(3-phenylpropyl)-1H-benzo[d]imidazole-1-carboxamide] | 1 µg/mL (≈ 2.51 µM) |  | < 200 nM
CN1CCN(CCOc2nc3ccccc3n2C(=O)NCCC#Cc2ccccc2)CC1 [Example 363, 2-(2-(4-Methylpiperazin-1-yl)ethoxy)-N-(4-phenylbut-3-yn-1-yl)-1H-benzo[d]imidazole-1-carboxamide] | 28 µg/mL (≈ 64.9 µM) | < 200 nM | 
CN(C)CC1CN(c2cccc3c2ncn3C(=O)NCC#Cc2ccccc2)C1 [Example 331, 4-(3-((Dimethylamino)methyl)azetidin-1-yl)-N-(3-phenylprop-2-yn-1-yl)-1H-benzo[d]imidazole-1-carboxamide] | 22 µg/mL (≈ 56.8 µM) |  | < 200 nM
CC(C)CCNC(=O)n1cnc2c(N3CCN(C4COC4)CC3)cccc21 [Example 154, N-iso-Pentyl-4-(4-(oxetan-3-yl)piperazin-1-yl)-1H-benzo[d]imidazole-1-carboxamide] | 30 µg/mL (≈ 80.8 µM) | 200 to 1000 nM | 
O=C(NCCc1ccccc1)n1cnc2ccc(C(F)(F)F)cc21 [Example 26b, N-phenethyl-6-(trifluoromethyl)-1H-benzo[d]imidazole-1-carboxamide] | 2.6 µg/mL (≈ 7.8 µM) | < 200 nM | 
CN1CC2CC(C1)N2c1cccc2c1ncn2C(=O)NCCCc1ccccc1 [Example 245, 4-(3-Methyl-3,6-diazabicyclo[3.1.1]heptan-6-yl)-N-(3-phenylpropyl)-1H-benzo[d]imidazole-1-carboxamide] | 32 µg/mL (≈ 82.2 µM) |  | < 200 nM
CN(C)CC1CN(c2cccc3c2ncn3C(=O)NCCCc2ccccc2)C1 [Example 272, 4-(3-((Dimethylamino)methyl)azetidin-1-yl)-N-(3-phenylpropyl)-1H-benzo[d]imidazole-1-carboxamide] | 21 µg/mL (≈ 53.6 µM) |  | < 200 nM
N#Cc1cccc2c1ncn2C(=O)NCCCCc1ccccc1 [Example 130, 4-Cyano-N-(4-phenylbutyl)-1H-benzo[d]imidazole-1-carboxamide] | 1.3 µg/mL (≈ 4.08 µM) | < 200 nM | 
CC(=O)N1CCN(c2cccc3c2ncn3C(=O)NCCCc2ccccc2)CC1 [Example 218, 4-(4-Acetylpiperazin-1-yl)-N-(3-phenylpropyl)-1H-benzo[d]imidazole-1-carboxamide] | 24 µg/mL (≈ 59.2 µM) |  | < 200 nM
CN1CCN(c2cccc3c2ncn3C(=O)NCCCc2ccccc2)CC1 [Example 192, 4-(4-Methylpiperazin-1-yl)-N-(3-phenylpropyl)-1H-benzo[d]imidazole-1-carboxamide] | 12 µg/mL (≈ 31.8 µM) |  | < 200 nM
CC(C)C#CCNC(=O)n1cnc2c(N3CCN(C4CN(C)C4)CC3)cccc21 [Example 299, 4-(4-(1-Methylazetidin-3-yl)piperazin-1-yl)-N-(4-methylpent-2-yn-1-yl)-1H-benzo[d]imidazole-1-carboxamide] | 30 µg/mL (≈ 76 µM) |  | < 200 nM
CN1CCN(C2CN(c3cccc4c3ncn4C(=O)NCC(C)(C)Oc3ccccc3)C2)CC1 [Example 344, N-(2-Methyl-2-phenoxypropyl)-4-(3-(4-methylpiperazin-1-yl)azetidin-1-yl)-1H-benzo[d]imidazole-1-carboxamide] | 29 µg/mL (≈ 62.7 µM) | < 200 nM | 
CCN1CCN(c2cccc3c2ncn3C(=O)NCCCc2ccccc2)CC1 [Example 249, 4-(4-Ethylpiperazin-1-yl)-N-(3-phenylpropyl)-1H-benzo[d]imidazole-1-carboxamide] | 12 µg/mL (≈ 30.6 µM) |  | < 200 nM
CCOc1nc2c(Cl)cccc2n1C(=O)NCCc1ccccc1 [Example 93, 4-Chloro-2-ethoxy-N-phenethyl-1H-benzo[d]imidazole-1-carboxamide] | 0.05 µg/mL (≈ 0.145 µM) | < 200 nM | 
CC(C)C(=O)N1CCN(c2cccc3c2ncn3C(=O)NCCCC2(C(F)(F)F)CC2)CC1 [Example 234, 4-(4-iso-Butyrylpiperazin-1-yl)-N-(3-(1-(trifluoromethyl)cyclopropyl)propyl)-1H-benzo[d]imidazole-1-carboxamide] | 1 µg/mL (≈ 2.15 µM) |  | < 200 nM
O=C(NCCCc1ccccc1)n1cnc2c(N3CCOCC3)cccc21 [Example 142, 4-Morpholino-N-(3-phenylpropyl)-1H-benzo[d]imidazole-1-carboxamide] | 1.4 µg/mL (≈ 3.84 µM) | < 200 nM | 
CN1CCN(C2CN(c3cccc4c3ncn4C(=O)NCCOc3ccccc3)C2)CC1 [Example 314, 4-(3-(4-Methylpiperazin-1-yl)azetidin-1-yl)-N-(2-phenoxyethyl)-1H-benzo[d]imidazole-1-carboxamide] | 35 µg/mL (≈ 80.5 µM) |  | < 200 nM
CCCCNC(=O)n1cnc2c(C3CCN(C)CC3)c(C(F)(F)F)ccc21 [Example 56, N-Butyl-4-(1-methylpiperidin-4-yl)-5-(trifluoromethyl)-1H-benzo[d]imidazole-1-carboxamide] | 28.1 µg/mL (≈ 73.5 µM) | > 1000 nM | 
O=C(NCCCCc1ccccc1)n1cnc2c(N3CCOCC3)cccc21 [Example 137, 4-Morpholino-N-(4-phenylbutyl)-1H-benzo[d]imidazole-1-carboxamide] | 0.6 µg/mL (≈ 1.59 µM) | < 200 nM | 
COCCOc1nc2ccccc2n1C(=O)NCCCc1ccccc1 [Example 191, 2-(2-Methoxyethoxy)-N-(3-phenylpropyl)-1H-benzo[d]imidazole-1-carboxamide] | 4 µg/mL (≈ 11.3 µM) |  | < 200 nM
CN1CCN(c2cccc3c2ncn3C(=O)NCc2ccc3c(c2)OCCO3)CC1 [Example 365, N-((2,3-Dihydrobenzo[b][1,4]dioxin-6-yl)methyl)-4-(4-methylpiperazin-1-yl)-1H-benzo[d]imidazole-1-carboxamide] | 11 µg/mL (≈ 27 µM) | < 200 nM | 
CCCCNC(=O)n1cnc2c(C3CCN(C)CC3)cc(OC)cc21 [Example 58, N-Butyl-6-methoxy-4-(1-methylpiperidin-4-yl)-1H-benzo[d]imidazole-1-carboxamide] | 28.1 µg/mL (≈ 81.6 µM) | 200 to 1000 nM | 
CNC1CCN(c2cccc3c2ncn3C(=O)NCCOc2ccccc2)C1 (stereo not shown) [Example 315, 4-(3-(Methylamino)pyrrolidin-1-yl)-N-(2-phenoxyethyl)-1H-benzo[d]imidazole-1-carboxamide] | 30 µg/mL (≈ 79.1 µM) |  | < 200 nM

Further lines, results first:

solubility [1] | IC50 (acid ceramidase; [2]) | IC50 (acid ceramidase; pH 4.5) | SMILES
1 µg/mL (≈ 2.41 µM) | < 200 nM |  | COc1nc2cc(F)c(N3CCOCC3)cc2n1C(=O)NCCOc1ccccc1 [Example 335a, 5-Fluoro-2-methoxy-6-morpholino-N-(2-phenoxyethyl)-1H-benzo[d]imidazole-1-carboxamide]
24 µg/mL (≈ 65 µM) |  | 200 to 1000 nM | CC(C)CCNC(=O)n1cnc2c(N3CCN4C(=O)CCC4C3)cccc21 (stereo not shown) [Example 209, N-iso-Pentyl-4-(6-oxohexahydropyrrolo[1,2-a]pyrazin-2(1H)-yl)-1H-benzo[d]imidazole-1-carboxamide]
0.3 µg/mL (≈ 0.928 µM) | < 200 nM |  | CC(C)Oc1cccc2c1ncn2C(=O)NCCc1ccccc1 [Example 90, 4-iso-Propoxy-N-phenethyl-1H-benzo[d]imidazole-1-carboxamide]
29 µg/mL (≈ 75.4 µM) |  | 200 to 1000 nM | COc1nc2ccc(N3CCOCC3)cc2n1C(=O)NCCCc1ccco1 [Example 228a, N-(3-(Furan-2-yl)propyl)-2-methoxy-6-morpholino-1H-benzo[d]imidazole-1-carboxamide]
4 µg/mL (≈ 11.2 µM) |  | 200 to 1000 nM | CC(C)CCNC(=O)n1cnc2c(N3CCO[C@@H](C(C)C)C3)cccc21 [Example 172a, (S)—N-iso-Pentyl-4-(2-iso-propylmorpholino)-1H-benzo[d]imidazole-1-carboxamide]
11.9 µg/mL (≈ 38.5 µM) | < 200 nM |  | CC(C)CCNC(=O)n1cnc2cc(-c3cncnc3)ccc21 [Example 103b, N-iso-pentyl-5-(pyrimidin-5-yl)-1H-benzo[d]imidazole-1-carboxamide]
21.8 µg/mL (≈ 67 µM) | 200 to 1000 nM |  | CCCCNC(=O)n1c(OC)nc2ccc(-c3cncnc3)cc21 [Example 82a, N-Butyl-2-methoxy-6-(pyrimidin-5-yl)-1H-benzo[d]imidazole-1-carboxamide]
6 µg/mL (≈ 17.6 µM) | 200 to 1000 nM |  | CSc1nc2cc(-c3cccnc3)cnc2n1C(=O)NCC(C)C [Example 125]
7 µg/mL (≈ 21.6 µM) | < 200 nM |  | CCOc1nc2ncccc2n1C(=O)NCCCc1ccccc1 [Example 91a, 2-Ethoxy-N-(3-phenylpropyl)-1H-imidazo[4,5-b]pyridine-1-carboxamide]
0.6 µg/mL (≈ 1.85 µM) | > 1000 nM |  | CC(C)CNC(=O)n1c(=O)n(C)c2ccc(-c3cccnc3)cc21 [Example 123, N-iso-Butyl-3-methyl-2-oxo-6-(pyridin-3-yl)-2,3-dihydro-1H-benzo[d]imidazole-1-carboxamide]
27 µg/mL (≈ 76 µM) | 200 to 1000 nM |  | CC(C)CCNC(=O)n1cnc2c(N3CCN(C)C4(CC4)C3)cccc21 [Example 157, N-iso-Pentyl-4-(4-methyl-4,7-diazaspiro[2.5]-octan-7-yl)-1H-benzo[d]imidazole-1-carboxamide]
2.6 µg/mL (≈ 8.8 µM) | < 200 nM |  | COc1ccc2c(c1)ncn2C(=O)NCCc1ccccc1 [Example 25a, 5-Methoxy-N-phenethyl-1H-benzo[d]imidazole-1-carboxamide]
